{"source": "patent US6063797A", "about": "“γ-RAR antagonist ligand or α-RAR agonist ligand as an apoptosis inhibitor” (priority 1995, dated 2000)", "key": {"[1]": {"system": "thymocytes", "experiment": "Quantitative DNA fragmentation (apoptosis) in thymocytes, retinoid-induced (Example 1)", "type": "cell-based, mouse (NMRI)", "settings": "for % of DNA fragments: 6 h", "procedure": "(§1) Thymus glands from untreated 4-week old NMRI male mice (sold by LATI, Godollo, Hungary) are used as the starting material for preparing thymocyte suspensions. The medium employed is Sigma RPMI 1640 medium which is supplemented with Gibco foetal calf serum, 2 mM glutamine, 100 IU of penicillin and 100 μg of streptomycin/ml. The thymocytes are then washed and diluted, in order to obtain a final concentration of 10^7 cells/ml, before incubating them at 37° C. in a humidified incubator under an atmosphere of 5% CO2 and 95% air. The death of the cells is measured by the uptake of trypan blue.\n(§2) The thymocytes are incubated in 24 wells together with various compounds to be tested. After 6 hours of incubation, 0.8 ml volumes of cell suspensions were lysed by the addition of 0.7 ml of lysis buffer containing 0.5% (v/v) Triton X-100, 10 mM Tris, 20 mM EDTA, pH 8.0, before being centrifuged at 13,000 g for 15 minutes.\n(§3) Quantitative analysis of the DNA: the DNA contained in the supernatant (the fragments) and the pellet (intact chromatin) was precipitated with an equivalent quantity of 10% trichloroacetic acid, resuspended in 5% trichloroacetic acid and then quantified using the diphenylamine reagent (Burton, K. (1956) Biochem. J., 62, 315-322).\nQualitative analysis of the DNA: in parallel, the supernatant was precipitated overnight in ethanol containing […]. The pellets are redissolved in a buffer containing 10 mM Tris, 1 mM EDTA, pH 8.0, after which the solutions are treated with RNase and sequentially extracted with an equal volume of phenol and chloroform/isoamyl alcohol (24/1); the DNA is then precipitated in ethanol before electrophoresis for 3 hours at 60 V in a 1.8% agarose gel. The DNA fragments were then visualized by UV after the gel had been stained with ethidium bromide. The gels obtained display the picture of a ladder of DNA fragments which are multiples of from 180 to 200 base pairs and which are typical for an apoptosis induction. Throughout the experiments, the degree of fragmentation correlates with the number of cells which are dead and which are positive to the trypan blue test.\n(§4) The percentage of DNA fragment in this table corresponds to the difference between the percentage of DNA fragment obtained in the treated thymocytes and the percentage of DNA fragment obtained in the untreated thymocytes (basal rate of apoptosis for these thymocytes)."}, "[2]": {"target": "T1, RAR-α (Homo sapiens, UniProt P10276)", "T1 sequence (P10276 1-462)": "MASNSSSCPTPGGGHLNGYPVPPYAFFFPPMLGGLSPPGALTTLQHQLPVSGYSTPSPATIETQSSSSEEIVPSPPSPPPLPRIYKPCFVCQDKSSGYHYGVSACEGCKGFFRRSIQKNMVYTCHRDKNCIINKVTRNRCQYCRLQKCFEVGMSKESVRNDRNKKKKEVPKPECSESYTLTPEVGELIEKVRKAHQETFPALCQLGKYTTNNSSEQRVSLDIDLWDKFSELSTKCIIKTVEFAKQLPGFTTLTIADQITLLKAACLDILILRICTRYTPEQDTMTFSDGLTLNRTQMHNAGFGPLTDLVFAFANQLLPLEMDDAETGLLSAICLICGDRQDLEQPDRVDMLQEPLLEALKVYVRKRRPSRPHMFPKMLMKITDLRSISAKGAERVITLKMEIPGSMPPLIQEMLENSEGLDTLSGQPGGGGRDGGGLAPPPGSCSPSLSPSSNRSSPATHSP", "experiment": "Dissociation constant for RAR-α receptors", "type": "binding"}, "[3]": {"target": "T2, RAR-γ (Homo sapiens, UniProt P13631)", "T2 sequence (P13631 1-454)": "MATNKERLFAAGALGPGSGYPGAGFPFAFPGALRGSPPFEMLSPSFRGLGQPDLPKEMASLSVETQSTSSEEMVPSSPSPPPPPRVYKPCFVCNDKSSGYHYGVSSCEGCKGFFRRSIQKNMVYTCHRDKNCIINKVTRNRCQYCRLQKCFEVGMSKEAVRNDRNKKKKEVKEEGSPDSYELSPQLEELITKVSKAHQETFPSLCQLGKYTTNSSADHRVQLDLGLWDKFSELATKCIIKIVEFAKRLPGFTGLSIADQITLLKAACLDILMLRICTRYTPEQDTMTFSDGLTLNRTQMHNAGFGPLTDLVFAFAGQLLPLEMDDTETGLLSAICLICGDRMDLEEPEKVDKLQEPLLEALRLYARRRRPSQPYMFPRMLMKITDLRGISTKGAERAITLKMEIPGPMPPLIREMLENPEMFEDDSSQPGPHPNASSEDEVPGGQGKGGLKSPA", "experiment": "Dissociation constant for RAR-γ receptors", "type": "binding"}, "[4]": {"system": "thymus", "type": "in vivo, mouse (NMRI)", "settings": "for Weight of the thymus: 48 h, control 98.2 ± 19.6", "procedure": "4-week-old male NMRI mice (sold by LATI, Godollo, Hungary) were used. […] For the control, male mice were treated by a single intraperitoneal injection of a mixture of 40 μl of DMSO and 0.5 ml of 20% ethanol. The CD2665 was also tested alone under the same conditions as before and in a quantity of 0.5 mg. The weight of the thymus was determined after 48 hours of treatment, and the results are assembled in Table 4 below."}, "[5]": {"system": "thymocytes", "experiment": "DNA fragmentation (apoptosis) in thymocytes induced by CD437 (Example 2)", "type": "cell-based, mouse (NMRI)", "settings": "for % of DNA fragments: difference treated minus untreated", "procedure": "as §1, §2, §3\nThe procedure is the same as in the preceding example, except that the nature of the ligands to be tested, and their concentration, are altered.\nas §4"}, "[6]": {"system": "thymocytes", "experiment": "DNA fragmentation (apoptosis) in thymocytes induced by activating a T-cell receptor with phorbol dibutyrate + Ca++ ionophore (Example 3)", "type": "cell-based, mouse (NMRI)", "settings": "for % of DNA fragments: difference treated minus untreated"}, "[7]": {"settings": "0.5 mg single intraperitoneal injection, alone"}}, "note": "Where two headings read alike, the source gives them in different places.", "data": [{"smiles": "CC1=C(/C=C/C(C)=C/C=C/C(C)=C/C(=O)O)C(C)(C)CCC1", "note": "[ATRA, all-trans retinoic acid, reference compound]", "values": [{"measurement": "% of DNA fragments", "setting": "[1]; ATRA 5000 nM, difference treated minus untreated thymocytes", "result": 17, "unit": "%"}]}, {"smiles": "CC1=C(/C=C/C(C)=C\\C=C\\C(C)=C\\C(=O)O)C(C)(C)CCC1", "note": "[9-cisRA, 9-cis-retinoic acid, reference compound]", "values": [{"measurement": "% of DNA fragments", "setting": "[1]; 9-cisRA 1000 nM, difference treated minus untreated thymocytes", "result": 19, "unit": "%"}]}, {"smiles": "COCCOCOc1cc2ccc(-c3ccc(C(=O)O)cc3)cc2cc1C12CC3CC(CC(C3)C1)C2", "note": "[CD2665, 4-[7-(1-adamantyl)-6-methoxyethoxymethoxy-2-naphthyl]benzoic acid]", "values": [{"measurement": "Kd", "setting": "[2]", "result": "> 2250", "unit": "nM"}, {"measurement": "Kd", "setting": "[3]", "result": 110, "unit": "nM"}, {"measurement": "dissociation constant for RAR-γ lower than dissociation constant for RAR-α (fold)", "setting": "[3]; RAR-γ versus RAR-α", "result": "at least 20 times"}, {"measurement": "% of DNA fragments", "setting": "[1]; CD2665 200 nM + 9-cisRA 1000 nM, difference treated minus untreated", "result": 1.5, "unit": "%"}, {"measurement": "% of DNA fragments", "setting": "[1]; CD2665 200 nM + ATRA 5000 nM, difference treated minus untreated", "result": 0, "unit": "%"}, {"measurement": "% of DNA fragments", "setting": "[1]; CD2665 200 nM + CD437 300 nM, difference treated minus untreated", "result": 1.0, "unit": "%"}, {"measurement": "% of DNA fragments", "setting": "[1]; CD2665 200 nM alone, difference treated minus untreated thymocytes", "result": 0.5, "unit": "%"}, {"measurement": "inhibition of apoptosis induced by ATRA, 9-cisRA and CD437", "setting": "[1]; conclusion from Table 1", "result": "inhibited"}, {"measurement": "Weight of the thymus", "setting": "[4]; [7]", "result": "107.6 ± 21.7", "unit": "mg"}, {"measurement": "Weight of the thymus", "setting": "[4]; CD2665 5 mg + CD437 0.5 mg, single intraperitoneal injection", "result": "63.3 ± 9.1", "unit": "mg"}, {"measurement": "involution of the thymus", "setting": "[4]; alone, conclusion from Table 4", "result": "no significant change is observed"}, {"measurement": "involution of the thymus", "setting": "[4]; combination of CD2665 and CD437, compared with CD437 alone", "result": "involution of the thymus which is much less marked than that observed with CD437 alone"}]}, {"smiles": "CC1(C)CCC(C)(C)c2cc(C(=O)Nc3ccc(C(=O)O)cc3)ccc21", "note": "[CD336, 4-((5,6,7,8-tetrahydro-5,5,8,8-tetramethyl-2-naphthalenyl)carboxamido)benzoic acid]", "values": [{"measurement": "% of DNA fragments", "setting": "[5]; CD336 alone 10^-6 M", "result": 0, "unit": "%"}, {"measurement": "% of DNA fragments", "setting": "[5]; CD336 alone 10^-7 M", "result": 0, "unit": "%"}, {"measurement": "% of DNA fragments", "setting": "[5]; CD336 alone 10^-8 M", "result": 0, "unit": "%"}, {"measurement": "% of DNA fragments", "setting": "[5]; CD437 + CD336 10^-6 M", "result": 0, "unit": "%"}, {"measurement": "% of DNA fragments", "setting": "[5]; CD437 + CD336 10^-7 M", "result": 5, "unit": "%"}, {"measurement": "% of DNA fragments", "setting": "[5]; CD437 + CD336 10^-8 M", "result": 17, "unit": "%"}, {"measurement": "inhibition of apoptosis induced by CD437", "setting": "[5]; conclusion from Table 2", "result": "inhibited in a dose-dependent manner"}, {"measurement": "% of DNA fragments", "setting": "[6]; (P + C) + CD336 30 nM", "result": 9.6, "unit": "%"}, {"measurement": "% of DNA fragments", "setting": "[6]; (P + C) + CD336 300 nM", "result": 8.4, "unit": "%"}, {"measurement": "% of DNA fragments", "setting": "[6]; (P + C) + CD336 3000 nM", "result": 1.1, "unit": "%"}, {"measurement": "% of DNA fragments", "setting": "[6]; CD336 alone 30 nM", "result": 0, "unit": "%"}, {"measurement": "% of DNA fragments", "setting": "[6]; CD336 alone 300 nM", "result": 0, "unit": "%"}, {"measurement": "% of DNA fragments", "setting": "[6]; CD336 alone 3000 nM", "result": 0, "unit": "%"}, {"measurement": "inhibition of apoptosis induced by P+C", "setting": "[6]; conclusion from Table 3", "result": "inhibited in a dose-dependent manner"}]}, {"smiles": "CC1(C)CCC(C)(C)c2cc(C(=O)Nc3ccc(C(=O)O)c(O)c3)ccc21", "note": "[2-hydroxy-4-(5,5,8,8-tetramethyl-5,6,7,8-tetrahydronaphthalene-2-carboxamido)benzoic acid]", "values": [{"measurement": "dissociation constant for RAR-α lower than dissociation constant for RAR-γ (fold)", "setting": "[2]; RAR-α versus RAR-γ", "result": "at least 20 times"}]}, {"smiles": "O=C(O)c1ccc2cc(-c3ccc(O)c(C45CC6CC(CC(C6)C4)C5)c3)ccc2c1", "note": "[CD437, reference compound]", "values": [{"measurement": "% of DNA fragments", "setting": "[1]; CD437 300 nM, difference treated minus untreated thymocytes", "result": 24, "unit": "%"}, {"measurement": "% of DNA fragments", "setting": "[5]; CD437 alone 0.3 × 10^-6 M", "result": 17, "unit": "%"}, {"measurement": "Weight of the thymus", "setting": "[4]; [7]", "result": "31.3 ± 13.6", "unit": "mg"}, {"measurement": "involution of the thymus", "setting": "[4]; alone, conclusion from Table 4", "result": "involution of the thymus is observed"}]}]}
